The source of these data is US20210198277A1, “AMINE-SUBSTITUTED ARYL OR HETEROARYL COMPOUNDS” (Epizyme, Inc., priority 2016, published 2021).

The assay deals with T1, EHMT2 (Homo sapiens, UniProt Q96KQ7).
T1 construct: host or cells: MDA-MB-231
T1 sequence (Q96KQ7 1-1210): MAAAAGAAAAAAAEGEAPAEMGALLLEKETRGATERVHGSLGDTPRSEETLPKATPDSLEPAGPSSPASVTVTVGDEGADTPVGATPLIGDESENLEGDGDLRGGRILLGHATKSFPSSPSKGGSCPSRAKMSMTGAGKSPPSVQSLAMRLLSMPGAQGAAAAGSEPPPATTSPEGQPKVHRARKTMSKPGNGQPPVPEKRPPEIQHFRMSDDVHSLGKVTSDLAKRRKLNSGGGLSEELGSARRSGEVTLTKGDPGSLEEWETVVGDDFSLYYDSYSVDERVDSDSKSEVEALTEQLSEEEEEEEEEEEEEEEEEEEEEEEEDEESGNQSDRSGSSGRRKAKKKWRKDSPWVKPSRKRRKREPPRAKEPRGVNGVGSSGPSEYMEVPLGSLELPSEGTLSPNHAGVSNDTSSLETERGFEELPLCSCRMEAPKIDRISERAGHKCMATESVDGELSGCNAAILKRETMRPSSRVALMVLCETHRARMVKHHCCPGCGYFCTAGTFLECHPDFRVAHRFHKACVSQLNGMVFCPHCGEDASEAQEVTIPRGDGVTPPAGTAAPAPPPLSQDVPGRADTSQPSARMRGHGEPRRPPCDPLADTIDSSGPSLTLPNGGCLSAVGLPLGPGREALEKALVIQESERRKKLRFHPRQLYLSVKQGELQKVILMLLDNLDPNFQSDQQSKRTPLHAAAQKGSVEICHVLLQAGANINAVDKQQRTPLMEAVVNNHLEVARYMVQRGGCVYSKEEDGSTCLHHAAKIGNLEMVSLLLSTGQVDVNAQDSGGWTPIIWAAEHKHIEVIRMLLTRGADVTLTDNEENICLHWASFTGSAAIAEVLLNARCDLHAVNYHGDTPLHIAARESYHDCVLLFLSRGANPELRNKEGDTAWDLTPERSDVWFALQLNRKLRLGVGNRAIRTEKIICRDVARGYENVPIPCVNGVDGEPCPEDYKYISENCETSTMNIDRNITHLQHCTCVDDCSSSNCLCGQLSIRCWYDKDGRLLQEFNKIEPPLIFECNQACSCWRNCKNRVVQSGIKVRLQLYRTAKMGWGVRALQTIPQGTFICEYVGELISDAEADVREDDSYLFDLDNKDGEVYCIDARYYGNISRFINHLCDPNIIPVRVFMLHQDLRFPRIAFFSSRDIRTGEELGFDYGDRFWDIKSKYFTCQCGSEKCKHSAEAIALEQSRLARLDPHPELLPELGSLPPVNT
Description: MDA-MB-231 H3K9me2 in-cell Western assay (EHMT2 ICW). Type of assay: cell-based. A digest of the protocol:
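Cellular dimethyl-H3K9 is quantified by in-cell Western in MDA-MB-231 cells treated with compound for 48 h. The H3K9me2 signal at 800 nm is normalised to DRAQ5 nuclear stain at 700 nm. IC50 is calculated from triplicate concentration points by nonlinear regression.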

Where [1] appears, read: H3K9me2 in-cell Western, MDA-MB-231 cells, read-out: EHMT2 ICW (IC50 μM).
Where [2] appears, read: Table VII, read-out: EHMT2 ICW IC50.

Molecules are shown by their SMILES. Read-outs that look alike come from different tables or passages of the source.

As to `CNc1cc(C)nc(Nc2ccc(OC)c([C@H]3C[C@@H]3CN(C)C)c2)n1` [Compound 487], under setting [1], the half-maximal inhibitory concentration (IC50) lay in the range of 1 to 10 µM. The same measure, in the same setting: the same measure for `CNc1cc(C)nc(Nc2cnc(OC)c(OC[C@@H]3CCN(C4CC4)C3)c2)n1` [Compound 512]: below 0.1 µM; for `COc1cc2c(C3CCN(C)CC3)nc(NC3CCCC3)nc2cc1OCCCN1CCCC1` [Compound 529]: 0.1 to 1 µM; for `CNc1cc(C)nc(Nc2ccc(OC)c(OCC3CCCN(C4CC4)C3)c2)n1` (stereo not drawn) [Compound 517a]: 0.1 to 1 µM. `CNc1nc(C2CCNCC2)c2cc(OC)c(OCCCN3CCCC3)cc2n1` [Compound 520]: the 50% inhibitory concentration (IC50) under setting [1] was in the range of 1 to 10 µM.

`COc1cnc(Nc2nc(C)cc3[nH]ccc23)cc1OCC1CCN(C2CC2)C1` (stereo not drawn) [Compound 494]: the 50% inhibitory concentration (IC50) under setting [1] is below 0.1 µM.

Turning to `CNc1nc(C2=CCOCC2)c2cc(OC)c(OCCCN3CCCC3)cc2n1` [Compound 522], the IC50 under setting [1] was 1 to 10 µM. Still for that read-out and setting: the same measure for `CNc1nc(C2CCN(C(C)=O)CC2)c2cc(OC)c(OCCCN3CCCC3)cc2n1` [Compound 519]: above 10 µM; for `CNc1cc(C)nc(Nc2ccc(OC)c(OCCCN3CCCC3C)c2)n1` (stereo not drawn) [Compound 504, N^2-(4-methoxy-3-(3-(2-methylpyrrolidin-1-yl)propoxy)phenyl)-N^4,6-dimethylpyrimidine-2,4-diamine]: 0.1 to 1 µM.

Regarding `COc1ccc(Nc2nc(C)cc(NCC3CCOCC3)n2)cc1OCC1CCN(C2CC2)C1` (stereo not drawn) [Compound 462, N^2-(3-((1-cyclopropylpyrrolidin-3-yl)methoxy)-4-methoxyphenyl)-6-methyl-N^4-((tetrahydro-2H-pyran-4-yl)methyl)pyrimidine-2,4-diamine], the concentration for half-maximal inhibition (IC50) under setting [1] lay within 0.1 to 1 µM.

With `CNc1cc(C)nc(Nc2ccc(OC)c(OC[C@H]3CCN(C4CC4)C3)c2)n1` (single isomer, unassigned) [Compound 482], under setting [1], the IC50 was 1 to 10 µM. The same measure, in the same setting: the same measure for `COc1cnc(Nc2cc(NCC3CCOCC3)cc(C)n2)cc1OCCCN1CCCC1` [Compound 464, N^2-(5-methoxy-4-(3-(pyrrolidin-1-yl)propoxy)pyridin-2-yl)-6-methyl-N^4-((tetrahydro-2H-pyran-4-yl)methyl)pyridine-2,4-diamine]: 1 to 10 µM. Same read-out and setting: the same measure for `CNc1cc(Nc2cc(OCCCN3CC4CC4C3)c(OC)cn2)nc(C)c1F` (stereo not drawn) [Compound 509]: 0.1 to 1 µM; for `CNc1cc(C)nc(Nc2ccc(OC)c(OCCCN3CCC4(CC4)C3)c2)n1` [Compound 498, N^2-(3-(3-(5-azaspiro[2.4]heptan-5-yl)propoxy)-4-methoxyphenyl)-N^4,6-dimethylpyrimidine-2,4-diamine]: 1 to 10 µM. The same measure, in the same setting: to `CNc1cc(C2CCN(C)CC2)c2cc(OC)c(OCCCN3CCCC3)cc2n1` [Compound 535] belongs below 0.1 µM; to `CNc1nc(C2CC(C)(C)NC(C)(C)C2)c2cc(OC)c(OCCCN3CCCC3)cc2n1` [Compound 534], above 10 µM. In the case of `CCCCNc1nccc(NC)n1` [Compound 543, N^2-butyl-N^4-methylpyrimidine-2,4-diamine], the half-inhibitory concentration (IC50) under setting [1] was above 10 µM. For the compound `CNc1cc(C)nc(Nc2ccc(OC)c(OC[C@H](O)CN3CCCC3)c2)n1` [Compound 1045], under setting [2], the 50% inhibitory concentration (IC50) was 0.1 to 1 µM. With `CNc1cc(C)nc(Nc2ccc(OC)c(OC(C#N)CCN3CCCC3)c2)n1` (stereo not drawn) [Compound 489], the IC50 under setting [1] fell in the range of 1 to 10 µM. On the same count and under the same terms, to `COc1cnc(Nc2nc(C)cc3[nH]ncc23)cc1OCCCN1CCCC1` [Compound 460, N-(5-methoxy-4-(3-(pyrrolidin-1-yl)propoxy)pyridine-2-yl)-6-methyl-1H-pyrazolo[4,3-c]pyridine-4-amine] belongs 0.1 to 1 µM. Still for that read-out and setting: the same measure for `CNc1nc(C2CCCCC2)c2cc(OC)c(OCCCN3CCCC3)cc2n1` [Compound 523, 4-cyclohexyl-6-methoxy-N-methyl-7-(3-(pyrrolidin-1-yl)propoxy)quinazolin-2-amine]: 1 to 10 µM; for `CNc1cc(Nc2cc(OC[C@@H]3CCN(C)C3)c(OC)cn2)nc(C)n1` [Compound 473]: 1 to 10 µM; for `CNc1cc(C)nc(Nc2ccc(OC)c(OC3CCN(C)CC3)c2)n1` [Compound 455]: above 10 µM.

With `COc1cnc(Nc2nc(C)cc3[nH]ccc23)cc1OC[C@H]1CCN(C2CC2)C1` [Compound 494a], the half-maximal inhibitory concentration (IC50) under setting [1] is 0.1 to 1 µM. For `CCN(C)C[C@@H](O)COc1cc(Nc2nc(C)cc(NC)n2)ccc1OC` [Compound 1113], the half-maximal inhibitory concentration (IC50) under setting [2] was in the range of 1 to 10 µM.

Regarding `CNc1cc(C)nc(Nc2cc(Cl)c(OC)c(OCCCN3CCCC3)c2)n1` [Compound 496], the IC50 under setting [1] lay within 1 to 10 µM. For the compound `CNc1cc(C)nc(Nc2ccc(OC)c(OC[C@H]3C[C@@H](N(C)C)C3)c2)n1` [Compound 468], the IC50 under setting [1] is 1 to 10 µM. With `CNc1ccnc(Nc2ccc(OC)c(OC[C@@H](O)CN3CCC3)c2)n1` [Compound 1046], the 50% inhibitory concentration (IC50) under setting [2] was in the range of 1 to 10 µM. As to `CNc1cc(C)nc(Nc2ccc(OC)c(OCCCN3CC(O)C3)c2)n1` [Compound 465, 1-(3-(2-methoxy-5-((4-methyl-6-(methylamino)pyrimidin-2-yl)amino)phenoxy)propyl)azetidin-3-ol], under setting [1], the IC50 fell in the range of 0.1 to 1 µM.

Turning to `COc1ccc(Nc2nc(C)cc3[nH]ccc23)cc1OCCCN1CCCC1` [Compound 486], the 50% inhibitory concentration (IC50) under setting [1] was above 10 µM. With `CNc1cc(C)nc(Nc2ccc(OC)c(OC[C@@H](O)CN3CCCC3)c2)n1` [Compound 1044], the IC50 under setting [2] was 0.1 to 1 µM. `COc1cc2c(C3CCN(C)CC3)nc(N3CCC(F)(F)CC3)nc2cc1OCCCN1CCCC1` [Compound 528]: the 50% inhibitory concentration (IC50) under setting [1] was in the range of 1 to 10 µM. Still for that read-out and setting: to `CNc1cc(C)nc(Nc2ccc(OC)c(OCCC3CN(C)C3)c2)n1` [Compound 508] belongs above 10 µM; to `CNc1cc(C)nc(Nc2ccc(OC)c(OCCCN(C)C3CC3)c2)n1` [Compound 463, N^2-(3-(3-(cyclopropyl(methyl)amino)propoxy)-4-methoxyphenyl)-N^4,6-dimethylpyrimidine-2,4-diamine], 0.1 to 1 µM; to `CNc1nc(C2CCCC2)c2cc(OC)c(OCCCN3CCCC3)cc2n1` [Compound 518, 4-cyclopentyl-6-methoxy-N-methyl-7-(3-(pyrrolidin-1-yl)propoxy)quinazolin-2-amine], 1 to 10 µM.

As for `CNc1ccnc(Nc2ccc(OC)c(OCCOC3CC3)c2)n1` [Compound 453, N^2-(3-(2-cyclopropoxyethoxy)-4-methoxyphenyl)-N^4-methylpyrimidine-2,4-diamine], the 50% inhibitory concentration (IC50) under setting [1] is above 10 µM.

`CCn1nc(Nc2nccc3[nH]ccc23)cc1COCCN1CCCC1` [Compound 471]: the IC50 under setting [1] was above 10 µM. Still for that read-out and setting: to `CNc1cc(C)nc(Nc2ccc(OC)c([C@H]3C[C@H]3CN(C)C)c2)n1` [Compound 488] belongs 0.1 to 1 µM.

With `CNc1cc(C)nc(Nc2ccc(OC)c(OC[C@@H]3CN(C)C[C@@H]3O)c2)n1` [Compound 492], under setting [1], the 50% inhibitory concentration (IC50) fell in the range of 0.1 to 1 µM. Consider `CNc1cc(C2CCOCC2)c2cc(OC)c(OC[C@H](O)CN3CCC3)cc2n1` [Compound 1108], for which, under setting [2], the IC50 is 0.1 to 1 µM. As to `CNc1cc(C)nc(Nc2cnc(OC)c(OCCCN3CC4CC4C3)c2)n1` (stereo not drawn) [Compound 514], under setting [1], the IC50 was in the range of 0.1 to 1 µM. On the same count and under the same terms, the same measure for `CNc1ccnc(Nc2ccc(OC)c(OCc3nnc(C4CC4)[nH]3)c2)n1` [Compound 478]: above 10 µM.

On to `CNc1cc(C)nc(Nc2ccc(OC)c(OCC3CN(C4CC4)C3)c2)n1` [Compound 510], for which the IC50 under setting [1] lay within 0.1 to 1 µM.

In the case of `CNc1nc(C2CCN(C(C)C)CC2)c2cc(OC)c(OCCCN3CCCC3)cc2n1` [Compound 530], the IC50 under setting [1] was 1 to 10 µM. The same measure, in the same setting: the same measure for `CNc1cc(C)nc(Nc2ccc(OC)c(OCC3CCN(CCO)C3)c2)n1` (stereo not drawn) [Compound 461, 2-(3-((2-methoxy-5-((4-methyl-6-(methylamino)pyrimidin-2-yl)amino)phenoxy)methyl)pyrrolidin-1-yl)ethan-1-ol]: 0.1 to 1 µM; for `CNc1cc(C)nc(Nc2ccc(OC)c(OCCC3CCN(C)C3)c2)n1` (stereo not drawn) [Compound 503]: 1 to 10 µM; for `COc1cc2c(C3CCN(C)CC3)nc(N3CCCC3)nc2cc1OCCCN1CCCC1` [Compound 527]: 0.1 to 1 µM. The same measure, in the same setting: the same measure for `CNc1cc(C2CCCC2)nc(Nc2ccc(OC)c(OCCCN3CCCC3)c2)n1` [Compound 458, 6-cyclopentyl-N^2-(4-methoxy-3-(3-(pyrrolidin-1-yl)propoxy)phenyl)-N^4-methylpyrimidine-2,4-diamine]: 1 to 10 µM.

As a reminder, the IC50 is the concentration that gives 50% inhibition.
